This test concerns the target Endothelial lipase (EL) (Homo sapiens (Human), UniProt Q9Y5X9). The test can be described thus: Endothelial lipase (EL) enzymatic assay with fluorescent substrate A10070 in DMPG vesicles. The format is biochemical. The gist of the method: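 Substrate A10070 sits in sonicated DMPG vesicles at 0.11 mole fraction. Lipase and compound preincubated 30 min, 37° C, in HEPES pH 8.0 buffer with CaCl2.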
Sequence of Endothelial lipase (EL) (Q9Y5X9 21-500): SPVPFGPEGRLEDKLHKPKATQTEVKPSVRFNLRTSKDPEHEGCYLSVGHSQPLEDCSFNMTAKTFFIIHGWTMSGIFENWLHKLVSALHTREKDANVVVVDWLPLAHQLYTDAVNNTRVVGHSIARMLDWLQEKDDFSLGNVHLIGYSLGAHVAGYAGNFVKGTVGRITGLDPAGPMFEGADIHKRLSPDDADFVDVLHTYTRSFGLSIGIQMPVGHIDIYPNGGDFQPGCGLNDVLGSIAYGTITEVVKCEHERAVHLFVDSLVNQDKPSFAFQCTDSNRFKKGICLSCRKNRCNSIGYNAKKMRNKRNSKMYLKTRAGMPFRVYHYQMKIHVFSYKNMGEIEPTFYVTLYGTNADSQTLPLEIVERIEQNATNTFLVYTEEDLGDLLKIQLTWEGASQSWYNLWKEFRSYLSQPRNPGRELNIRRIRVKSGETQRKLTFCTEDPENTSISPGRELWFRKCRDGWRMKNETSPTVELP
On to `CC1(O)CN(C(=O)c2ccc(-c3cc4sc(C(C(=O)NCC(=O)NC5CC5)S(=O)(=O)CCC(F)(F)F)nc4cc3F)cc2)C1` (centres unmarked) [Example 564, N-[(cyclopropyl-carbamoyl)methyl]-2-{5-fluoro-6-[4-(3-hydroxy-3-methylazetidine-1-carbonyl)phenyl]-1,3-benzothiazol-2-yl}-2-[3,3,3-trifluoropropane-sulfonyl)acetamide], for which the IC50 (as a rule, the concentration that inhibits the measured activity by half) was found to be 5 nM. Compound `COCCS(=O)(=O)C(C(=O)NCC(=O)NC1CC1)c1nc2cc(-c3cccc(C(=O)NCC(F)(F)F)c3)ccc2s1` (centres unmarked) [Example 394, 3-[2-({[(cyclopropyl-carbamoyl)methyl]carbamoyl}(2-methoxyethane-sulfonyl)methyl)-1,3-benzothiazol-5-yl]-N-(2,2,2-trifluoroethyl) benzamide] showed an IC50 of 4 nM. Regarding `COCCS(=O)(=O)C(C(=O)NCC(=O)NC1CC1)c1nc2cc(-c3ccn(C)c(=O)c3)ccc2s1` (centres unmarked) [Example 336, N-[(cyclopropyl-carbamoyl)methyl]-2-(2-methoxyethane-sulfonyl)-2-[5-(1-methyl-2-oxo-1,2-dihydropyridin-4-yl)-1,3-benzothiazol-2-yl]acetamide], inhibition was half-maximal at 21 nM (IC50). This IC50 is about 5.2-fold higher than that of the compound before.

Turning to `COCCN(C)C(=O)c1ccc(-c2ccc3nc(C(C(=O)NCC(=O)NC4CC4)S(=O)(=O)CCOC)sc3c2)cc1F` (centres unmarked) [Example 568, 4-[2-({[(cyclopropyl-carbamoyl)methyl]carbamoyl}(2-methoxyethane-sulfonyl)methyl)-1,3-benzothiazol-6-yl]-2-fluoro-N-(2-methoxyethyl)-N-methylbenzamide], inhibition was half-maximal at 9 nM (IC50). In turn, `COCCS(=O)(=O)C(C(=O)NCC(=O)NCCOC(C)C)c1nc2cc(-c3ccnn3C)c(F)cc2s1` (centres unmarked) [Example 357, 2-[6-fluoro-5-(1-methyl-1H-pyrazol-5-yl)-1,3-benzothiazol-2-yl]-2-(2-methoxyethane-sulfonyl)-N-({[2-(propan-2-yloxy)ethyl]carbamoyl}methyl)acetamide] had an IC50 of 49 nM. Compared with the last compound, the IC50 is about 5.4-fold higher. As for `COCCS(=O)(=O)C(C(=O)NCC(=O)NC1CC1)c1nc2ccc(-c3ccnn3C)cc2s1` (centres unmarked) [Example 313, N-[(cyclopropyl-carbamoyl)methyl]-2-(2-methoxyethane-sulfonyl)-2-[6-(1-methyl-1H-pyrazol-5-yl)-1,3-benzothiazol-2-yl]acetamide], the midpoint of inhibition, the IC50, lay at 313 nM. `Cc1cc2nc(C(C(=O)NCC(=O)NC3CC3)S(=O)(=O)C(C)C)sc2cc1-c1ccc2c(=O)n(C)ccc2c1` (centres unmarked) [Example 256, N-[(cyclopropyl-carbamoyl)methyl]-2-[5-methyl-6-(2-methyl-1-oxo-1,2-dihydro-isoquinolin-6-yl)-1,3-benzothiazol-2-yl]-2-(propane-2-sulfonyl) acetamide] gave an IC50 of 3 nM.

Compound `CC(C)S(=O)(=O)C(C(=O)NCC(=O)NC1CC1)c1nc2cc(-c3cccnc3F)c(F)cc2s1` (centres unmarked) [Example 272, N-[(cyclopropyl-carbamoyl)methyl]-2-[6-fluoro-5-(2-fluoropyridin-3-yl)-1,3-benzothiazol-2-yl]-2-(propane-2-sulfonyl)acetamide] showed an IC50 of 29 nM. With `COCCS(=O)(=O)C(C(=O)NCC(=O)NC1CC1)c1nc2cc(Cl)c(-c3ccnn3C)cc2s1` (centres unmarked) [Example 107], the IC50 came to 34 nM. The compound `COCCS(=O)(=O)C(C(=O)NCC(=O)NC1CC1)c1nc2cc(-c3c(C)ccnc3F)ccc2s1` (centres unmarked) [Example 92, N-[(cyclopropyl-carbamoyl)methyl]-2-[5-(2-fluoro-4-methylpyridin-3-yl)-1,3-benzothiazol-2-yl]-2-(2-methoxyethane-sulfonyl) acetamide] yielded an IC50 of 77 nM. Take `COCCS(=O)(=O)C(C(=O)NCC(=O)NC1CC1)c1nc2c(F)cc(-c3ccc(C(F)(F)F)nc3)cc2s1` (centres unmarked) [Example 217, N-[(cyclopropyl-carbamoyl)methyl]-2-{4-fluoro-6-[6-(trifluoromethyl)pyridin-3-yl]-1,3-benzothiazol-2-yl}-2-(2-methoxyethane-sulfonyl) acetamide]: the IC50 is 26 nM.

Source of the values: patent US10173991B2, “Sulfone amide linked benzothiazole inhibitors of endothelial lipase” (BRISTOL-MYERS SQUIBB COMPANY, priority 2014, dated 2019).
